Activity calls are given as the source filed them. The rule behind the calls is not given here. Non-standard residues stand in square brackets, D forms with d. Residues, ends and D or L forms follow the SMILES beside them. *: point of attachment. X1 = CN(C)c1ccc2c(-c3cc(C(=O)*)ccc3C(=O)[O-])c3ccc(=[N+](C)C)cc-3oc2c1; Biotin = O=C1N[C@H]2[C@H](CS[C@H]2CCCCC(=O)*)N1; Chg = N[C@H](C(=O)O)C1CCCCC1; Tle = CC(C)(C)[C@H](N)C(=O)O; AEEA = NCCOCCOCC(=O)O
Assays:
Syntenin-1 [1] = target: T1, Syntenin-1 (Homo sapiens, UniProt O00560); assay: (§1) Inhibition of syntenin-PDZ1-2 domain (unknown origin) expressed in Escherichia coli BL21 (DE3) incubated for 5 mins by fluorescence polarization assay
T1 sequence (O00560 whole entry): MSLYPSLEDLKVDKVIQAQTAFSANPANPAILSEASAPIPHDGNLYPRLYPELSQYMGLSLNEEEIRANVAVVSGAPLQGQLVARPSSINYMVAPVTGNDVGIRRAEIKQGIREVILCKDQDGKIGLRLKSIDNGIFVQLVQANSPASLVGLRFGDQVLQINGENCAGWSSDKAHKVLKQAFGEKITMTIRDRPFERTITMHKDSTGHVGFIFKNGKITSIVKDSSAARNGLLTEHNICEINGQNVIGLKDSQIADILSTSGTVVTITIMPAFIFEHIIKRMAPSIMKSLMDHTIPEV

[2] = target: T2, Syntenin-1 (Homo sapiens) (UniProt O00560); assay: Inhibition of mCherry-labeled-syntenin expressed in human MCF7 cells co-expressing […] Q79L mutant assessed as reduction in syntenin-dependent intracellular endosomal budding at 0.1 to 10 uM incubated for 24 hrs; type: cell-based; conditions: dose 0.1-10 µM
T2 sequence (whole entry): T1 sequence (O00560 whole entry)

MCF7 = assay: Antineoplastic activity against human MCF7 cells assessed as reduction in cell viability at 10 to 30 uM incubated for 72 hrs by Cell-titer-Glo luminescent cell viability assay; type: functional, cell-based; conditions: dose 10-30 µM
HT-29 = assay: Antineoplastic activity against human HT-29 cells assessed as reduction in cell viability at 10 to 30 uM incubated for 72 hrs by Cell-titer-Glo luminescent cell viability assay; type: functional, cell-based; conditions: dose 10-30 µM
A2058 = assay: Antineoplastic activity against human A2058 cells assessed as reduction in cell viability incubated for 72 hrs by Cell-titer-Glo luminescent cell viability assay; type: functional, cell-based
[3] = Stability in human plasma assessed as half life for compound degradation at 0.2 mM by UPLC analysis; type: ADME, cell-free
[4] = Stability in mouse hepatic microsomes assessed as half life for compound degradation at […] in presence of NADPH by UPLC analysis; type: ADME, Microsome; conditions: liver microsomes
GBM [5] = assay: Antineoplastic activity against human patient-derived GBM001 cells assessed as reduction in cell viability incubated for 72 hrs by Cell-titer-Glo luminescent cell viability assay; type: functional, cell-based
[6] = target: T2, Syntenin-1 (Homo sapiens); assay: as §1
GBM [7] = assay: Antineoplastic activity against human patient-derived GBM002 cells assessed as reduction in cell viability incubated for 72 hrs by Cell-titer-Glo luminescent cell viability assay; type: functional, cell-based
Astrocyte = assay: Cytotoxic activity against normal human astrocytes assessed as reduction in cell viability at 20 to 30 uM incubated for 24 hrs by Cell-titer-Glo luminescent cell viability assay; type: cell-based; conditions: dose 20-30 µM
HEK293 = assay: Cytotoxic activity against HEK293 cells assessed as reduction in cell viability at 12.5 to 50 uM incubated for 24 hrs by Cell-titer-Glo luminescent cell viability assay; type: cell-based; conditions: human, hek293, 24 h, dose 12.5-50 µM
[8] = Drug distribution in cytoplasm of human patient-derived GBM002 cells at 10 to 30 uM incubated for 2 to 24 hrs hrs by confocal microscopy; type: ADME, subcellular; conditions: gbm, dose lower 10 µM, time lower 2 hrs, dose upper 30 µM, time upper 24 hrs
GBM [9] = assay: Antineoplastic activity against human patient-derived GBM cells xenografted in NMRInu-F receiving GBM cells pre-treated with 50 uM compound for 24 hrs assessed as median survival time (reference value: 25 days); type: functional
Syntenin-1 [10] = target: T1, Syntenin-1; assay: Binding affinity to syntenin-PDZ1-2 domain (unknown origin) expressed in Escherichia coli BL21 (DE3) by SPR analysis
[11] = target: T2, Syntenin-1 (Homo sapiens); assay: Binding affinity to syntenin-PDZ1-2 domain (unknown origin) expressed in Escherichia coli BL21 (DE3) assessed as apparent association rate constant by SPR analysis
[12] = target: T2, Syntenin-1 (Homo sapiens); assay: Binding affinity to syntenin-PDZ1-2 domain (unknown origin) expressed in Escherichia coli BL21 (DE3) assessed as apparent dissociation rate constant by SPR analysis
[13] = target: T2, Syntenin-1 (Homo sapiens); assay: Binding affinity to human syntenin-PDZ1 domain assessed as binding intensity by HTS holdup assay
[14] = target: T2, Syntenin-1 (Homo sapiens); assay: Binding affinity to human syntenin-PDZ2 domain assessed as binding intensity by HTS holdup assay
Homo sapiens = organism: Homo sapiens; assay: Selectivity index, ratio of Kd for binding affinity to syntenin2-PDZ1-2 domain (unknown origin) expressed in Escherichia coli BL21 (DE3) by SPR analysis to Kd for binding affinity to syntenin-PDZ1-2 domain (unknown origin) expressed in Escherichia coli BL21 (DE3) by SPR analysis

With `CC[C@H](C)[C@@H](NC(=O)[C@H](CC(=O)O)NC(=O)[C@@H](NC(=O)[C@@H](NC(=O)[C@H](Cc1c[nH]c2ccccc12)NC(=O)[C@H](Cc1cnc[nH]1)NC(=O)[C@H](CO)NC(=O)[C@H](CCCNC(=N)N)NC(=O)[C@H](CCCNC(=N)N)NC(=O)[C@H](CCCNC(=N)N)NC(=O)[C@H](CCCNC(=N)N)NC(=O)[C@H](CCCNC(=N)N)NC(=O)[C@H](CCCNC(=N)N)NC(=O)[C@H](CCCNC(=N)N)NC(=O)[C@H](CCCNC(=N)N)NC(=O)[C@H](CCCNC(=N)N)NC(C)=O)C(C)(C)C)C1CCCCC1)C(=O)O` the Ki (Syntenin-1 [1]) was 250 nM and the inhibition [2] was “Dose-dependent effect”.
For `CC[C@H](C)[C@@H](NC(=O)[C@H](CC(=O)O)NC(=O)[C@@H](NC(=O)[C@@H](NC(=O)[C@H](Cc1c[nH]c2ccccc12)NC(=O)[C@H](Cc1cnc[nH]1)NC(=O)[C@H](CO)NC(=O)[C@@H]1CCC(=O)NCCCC[C@H](NC(C)=O)C(=O)N[C@H](CCCNC(=N)N)C(=O)N[C@@H](CCCNC(=N)N)C(=O)N[C@H](CCCNC(=N)N)C(=O)NCC(=O)N[C@H](CCCNC(=N)N)C(=O)N[C@@H](CCCCN)C(=O)N[C@H](CCCCN)C(=O)N[C@@H](CCCNC(=N)N)C(=O)N[C@H](CCCNC(=N)N)C(=O)N1)C(C)(C)C)C1CCCCC1)C(=O)O`, the Activity (MCF7) was “inactive”, the Activity (HT-29) was “inactive” and the Activity (A2058) was “Dose-dependent effect”. For the same compound, the Ki (Syntenin-1 [1]) was 250 nM, the half-life at 200 µM [3] was > 1440 min and the half-life [4] was > 60 min. The inhibition [2] was “Dose-dependent effect”.
For `CC[C@H](C)[C@H](NC(=O)[C@H](CC(=O)O)NC(=O)[C@@H](NC(=O)[C@@H](NC(=O)[C@H](Cc1c[nH]c2ccccc12)NC(=O)[C@H](Cc1c[nH]cn1)NC(=O)[C@H](CO)NC(=O)[C@H](CCCNC(=N)N)NC(=O)[C@H](CCCNC(=N)N)NC(=O)[C@H](CCCNC(=N)N)NC(=O)[C@H](CCC(N)=O)NC(=O)[C@H](CCCNC(=N)N)NC(=O)[C@H](CCCNC(=N)N)NC(=O)[C@H](CCCCN)NC(=O)[C@H](CCCCN)NC(=O)[C@H](CCCNC(=N)N)NC(=O)CNC(=O)[C@H](Cc1ccc(O)cc1)NC(C)=O)C(C)(C)C)C1CCCCC1)C(=O)O`, the half-life [4] was > 60 min.
With `CC[C@H](C)[C@@H](NC(=O)[C@H](CC(=O)O)NC(=O)[C@@H](NC(=O)[C@@H](NC(=O)[C@H](Cc1c[nH]c2ccccc12)NC(=O)[C@H](Cc1cnc[nH]1)NC(=O)[C@H](CO)NC(=O)[C@H](CCCNC(=N)N)NC(=O)[C@H](CCCNC(=N)N)NC(=O)[C@H](CCCNC(=N)N)NC(=O)[C@H](CCC(N)=O)NC(=O)[C@H](CCCNC(=N)N)NC(=O)[C@H](CCCNC(=N)N)NC(=O)[C@H](CCCCN)NC(=O)[C@H](CCCCN)NC(=O)[C@H](CCCNC(=N)N)NC(=O)CNC(=O)[C@H](Cc1ccc(O)cc1)NC(C)=O)C(C)(C)C)C1CCCCC1)C(=O)O` the Ki (Syntenin-1 [1]) was 250 nM and the inhibition [2] was “Dose-dependent effect”.
For `CC[C@H](C)[C@H](NC(=O)[C@H](CC(=O)O)NC(=O)CNC(=O)[C@H](Cc1cnc[nH]1)NC(=O)[C@H](CS)NC(=O)[C@H](CCC(=O)O)NC(=O)[C@H](CC(C)C)NC(=O)[C@@H](NC(=O)[C@H](Cc1c[nH]c2ccccc12)NC(=O)[C@H](Cc1cnc[nH]1)NC(=O)[C@H](CO)NC(=O)[C@H](CCCNC(=N)N)NC(=O)[C@H](CCCNC(=N)N)NC(=O)[C@H](CCCCN)NC(=O)[C@H](CCCCN)NC(=O)[C@H](CCCNC(=N)N)NC(=O)CNC(=O)[C@H](CCCNC(=N)N)NC(=O)[C@H](CCCNC(=N)N)NC(=O)[C@H](CCCNC(=N)N)NC(=O)[C@H](CS)NC(=O)[C@H](C)N)[C@@H](C)O)C(=O)O` (H-ACRRRGRKKRRSHWTLECHGDI-OH), the Activity (GBM [5]) was “Dose-dependent effect”, the Activity (MCF7) was “inactive” and the Activity (HT-29) was “inactive”. For the same compound, the Activity (A2058) was “Dose-dependent effect”, the inhibition [6] was “Active” and the half-life [4] was > 60 min. For the same compound, the inhibition [2] was “Dose-dependent effect”, the Activity (GBM [7]) was “Dose-dependent effect” and the Activity (Astrocyte) was “Toxic”. For the same compound, the Activity (HEK293) was “Toxic”, the Drug uptake [8] was “Dose-dependent effect and Tde” and the MST (GBM [9]) was 45.5 days.
In the case of `CC[C@H](C)[C@H](NC(=O)[C@H](Cc1cnc[nH]1)NC(=O)[C@@H](NC(=O)[C@@H](NC(=O)[C@@H](N)CC(=O)O)C1CCCCC1)C(C)(C)C)C(=O)N[C@@H](Cc1c[nH]c2ccccc12)C(=O)N[C@@H](CO)C(=O)O` (H-D[Chg][Tle]HIWS-OH), the Ki (Syntenin-1 [1]) is reported as > 500000 nM.
Compound `CC[C@H](C)[C@H](NC(=O)[C@H](CC(=O)O)NC(=O)[C@@H](NC(=O)[C@@H](NC(=O)[C@H](Cc1c[nH]c2ccccc12)NC(=O)[C@H](Cc1cnc[nH]1)NC(=O)[C@H](CO)NC(=O)CNC(=O)[C@H](CC(N)=O)NC(=O)[C@H](CC(N)=O)NC(=O)c1ccc(C(=O)[O-])c(-c2c3ccc(=[N+](C)C)cc-3oc3cc(N(C)C)ccc23)c1)C(C)(C)C)C1CCCCC1)C(=O)O` (X1-NNGSHW[Tle][Chg]DI-OH) has a Ki (Syntenin-1 [1]) of 30 nM.
For `CC[C@H](C)[C@H](NC(=O)[C@H](CC(=O)O)NC(=O)[C@@H](NC(=O)[C@@H](NC(=O)[C@H](Cc1c[nH]c2ccccc12)NC(=O)[C@H](Cc1cnc[nH]1)NC(=O)[C@H](CO)NC(=O)COCCOCCNC(=O)CCCC[C@@H]1SC[C@@H]2NC(=O)N[C@@H]21)C(C)(C)C)C1CCCCC1)C(=O)O` ({Biotin-AEEA}-SHW[Tle][Chg]DI-OH), the Ki (Syntenin-1 [1]) was 190 nM, the Ki (Syntenin-1 [10]) was 170 nM and the K [11] was 3.1 10^5/M/s. The K [12] was 0.05 s⁻¹, the Flu intensity [13] was 0.96 and the Activity [14] was “inactive”. The Ratio (Homo sapiens) was 440.
Compound `CC(C)NCC(O)COc1cccc2ccccc12` (stereo not drawn) [PROPRANOLOL] has a half-life [4] of 35 min.
Compound H-KDKEYYV-OH has a Ki (Syntenin-1 [1]) of 110000 nM.
With H-NAIYSLA-OH the Ki (Syntenin-1 [1]) was 100000 nM.
In the case of H-RSGYEVM-OH, the Ki (Syntenin-1 [1]) is reported as 24000 nM.
With H-SHWTIDI-OH the Ki (Syntenin-1 [1]) was 2000 nM, the half-life at 200 µM [3] was 8.5 min and the half-life [4] was > 60 min.
With H-SKGETAV-OH the Ki (Syntenin-1 [1]) was 10000 nM.
Work on H-TLEDSVF-OH yielded a Ki (Syntenin-1 [1]) of 44000 nM.
Work on H-TTNEFYA-OH yielded a Ki (Syntenin-1 [1]) of 2000 nM.
